# Data published in PubChem BioAssay AID292 (DTP/NCI, 2004).
# Where “and” joins values, the source holds several entries; their conditions need not be identical. Equal entries are not always repeated. Toxic doses and inconclusive results are not listed.
# System: B6C3F1 mice, ip Sarcoma M5076, median survival T/C
# Assay: NCI In Vivo Anticancer Drug Screen. Data for tumor model Sarcoma M5076 (intraperitoneal) in B6C3F1 mice
# Conditions: endpoint: median survival time, schedule: Q04DX004 (ip), higher = longer survival
# How it was run: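 Survival measured in treated (T) and vehicle control (C) mice with transplantable tumour; result given as T divided by C.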
# [1] = dose: 37.5 mg/kg/injection, vehicle: saline with Tween-80
# [2] = dose: 75.0 mg/kg/injection, vehicle: saline with Tween-80
# [3] = dose: 150.0 mg/kg/injection, vehicle: saline with Tween-80
# [4] = dose: 300.0 mg/kg/injection, vehicle: saline with Tween-80
# [5] = dose: 25.0 mg/kg/injection, vehicle: Klucel (hydroxypropylcellulose) (HPC)
# [6] = dose: 50.0 mg/kg/injection, vehicle: Klucel (hydroxypropylcellulose) (HPC)
# [7] = dose: 100.0 mg/kg/injection, vehicle: Klucel (hydroxypropylcellulose) (HPC)
# [8] = dose: 200.0 mg/kg/injection, vehicle: Klucel (hydroxypropylcellulose) (HPC)
# [9] = dose: 50.0 mg/kg/injection, vehicle: saline with Tween-80
# [10] = dose: 100.0 mg/kg/injection, vehicle: saline with Tween-80
# [11] = dose: 200.0 mg/kg/injection, vehicle: saline with Tween-80
# [12] = dose: 400.0 mg/kg/injection, vehicle: saline with Tween-80
# [13] = dose: 800.0 mg/kg/injection, vehicle: saline with Tween-80
# [14] = dose: 25.0 mg/kg/injection, vehicle: saline with Tween-80
structure (smiles),measurement,setting,value
O=[n+]1c2c(n([O-])c3cc(Cl)c(Cl)cc31)CCCC2,T/C,"dose: 18.75 mg/kg/injection, vehicle: saline with Tween-80",99 % of control
same,T/C,[1],97 % of control
same,T/C,[2],100 % of control
same,T/C,[3],97 % of control
same,T/C,[4],95 % of control
CCn1c2ccccc2c2c3ncc4cccn4c3ccc21,T/C,[1],96 % of control
same,T/C,[2],96 % of control
same,T/C,[3],93 % of control
same,T/C,[4],92 % of control
same,T/C,"dose: 600.0 mg/kg/injection, vehicle: saline with Tween-80",89 % of control
CN1C=C/C(=C/[N+](=O)[O-])N(C)C1=O,T/C,[5],103 % of control
same,T/C,[6],103 % of control
same,T/C,[7],99 % of control
same,T/C,[8],103 % of control
Clc1ccccc1C(Nc1cnccn1)Nc1cnccn1,T/C,[9],105 % of control and 112 % of control
same,T/C,[10],105 % of control
same,T/C,[11],103 % of control and 109 % of control
same,T/C,[12],110 % of control and 114 % of control
same,T/C,[13],100 % of control
COc1ccc(-n2c(SCC(=O)NC(=O)Nc3ccccc3)nc3c(Br)cc(Br)cc3c2=O)cc1,T/C,"dose: 37.5 mg/kg/injection, vehicle: Klucel (hydroxypropylcellulose) (HPC)",91 % of control
same,T/C,"dose: 75.0 mg/kg/injection, vehicle: Klucel (hydroxypropylcellulose) (HPC)",93 % of control
same,T/C,"dose: 150.0 mg/kg/injection, vehicle: Klucel (hydroxypropylcellulose) (HPC)",89 % of control
same,T/C,"dose: 600.0 mg/kg/injection, vehicle: Klucel (hydroxypropylcellulose) (HPC)",90 % of control
CNC(=O)/C=C/C1=CN2C(=O)c3ccc(C)c(O)c3NC(OC)C2C1 (stereo not drawn),T/C,"dose: 12.5 micrograms/kg/injection, vehicle: saline",101 % of control and 108 % of control
same,T/C,"dose: 25.0 micrograms/kg/injection, vehicle: saline",104 % of control and 124 % of control
same,T/C,"dose: 50.0 micrograms/kg/injection, vehicle: saline",95 % of control and 108 % of control
same,T/C,"dose: 100.0 micrograms/kg/injection, vehicle: saline",98 % of control and 115 % of control
same,T/C,"dose: 200.0 micrograms/kg/injection, vehicle: saline",112 % of control
NC(=S)N/N=C/c1cc(=O)c2cc(Cl)ccc2o1,T/C,"dose: 75.0 mg/kg/injection, vehicle: DMSO",92 % of control
C=C1COC(O)(C2OCOC(C3CC(=O)NC(=O)C3)C2O)C1C (stereo not drawn),T/C,"dose: 4.0 micrograms/kg/injection, vehicle: water",112 % of control
same,T/C,"dose: 8.0 micrograms/kg/injection, vehicle: water",117 % of control
same,T/C,"dose: 13.8 micrograms/kg/injection, vehicle: water",105 % of control
same,T/C,"dose: 16.0 micrograms/kg/injection, vehicle: water",117 % of control
same,T/C,"dose: 23.04 micrograms/kg/injection, vehicle: water",116 % of control
same,T/C,"dose: 38.0 micrograms/kg/injection, vehicle: water",162 % of control
same,T/C,"dose: 38.4 micrograms/kg/injection, vehicle: water",110 % of control
Nc1nc2c(ncn2C2CC3[O][Sn]([c]4ccccc4)([c]4ccccc4)[O]CC3O2)c(=O)[nH]1 (stereo not drawn),T/C,"dose: 25.0 mg/kg/injection, vehicle: distilled water + Tween-80",99 % of control
same,T/C,"dose: 50.0 mg/kg/injection, vehicle: distilled water + Tween-80",90 % of control
same,T/C,"dose: 100.0 mg/kg/injection, vehicle: distilled water + Tween-80",88 % of control
same,T/C,"dose: 200.0 mg/kg/injection, vehicle: distilled water + Tween-80",92 % of control
Cc1ccc(C(=O)NC2C(=O)NC(C(C)C)C(=O)N3CCCC3C(=O)N(C)CC(=O)N(C)C(C(C)C)C(=O)OC2C)c2c1Oc1c(c(C(=O)NC3C(=O)NC(C(C)C)C(=O)N4CCCC4C(=O)N(C)CC(=O)N(C)C(C(C)C)C(=O)OC3C)c3nc(-c4ccccc4)c(=O)oc3c1C)N2 (stereo not drawn),T/C,"dose: 0.25 mg/kg/injection, vehicle: water",101 % of control and 113 % of control
same,T/C,"dose: 0.5 mg/kg/injection, vehicle: water",99 % of control
same,T/C,"dose: 1.0 mg/kg/injection, vehicle: water",114 % of control
COc1ccc(/C=N/NC(=O)c2ccc(OCc3nc4ccccc4[nH]3)cc2)cc1,T/C,[14],99 % of control
same,T/C,[9],100 % of control
same,T/C,[10],103 % of control
same,T/C,[11],97 % of control
same,T/C,[12],97 % of control
[N-]=[N+]=CC(=O)CCC(NC(=O)OCc1ccccc1)C(=O)OCc1ccccc1 (stereo not drawn),T/C,[5],113 % of control
same,T/C,[6],115 % of control
same,T/C,[7],121 % of control
same,T/C,[8],121 % of control
COc1ccc2c(n1)Sc1nc3ccccc3nc1N2,T/C,[1],92 % of control
same,T/C,[2],98 % of control
same,T/C,[3],87 % of control
C[n+]1c(-c2ccc(/C=N/NC(=O)c3ccc(C(=O)N/N=C/c4ccc(-c5cn6ccccc6[n+]5C)cc4)cc3)cc2)cn2ccccc21,T/C,[9],104 % of control
same,T/C,[10],98 % of control
same,T/C,[11],108 % of control
same,T/C,[12],115 % of control
same,T/C,[13],112 % of control
O=C1C(=O)N(c2ccccc2Cl)C(=O)N1Cc1ccccc1,T/C,"dose: 43.75 mg/kg/injection, vehicle: Klucel (hydroxypropylcellulose) (HPC)",102 % of control
same,T/C,"dose: 87.5 mg/kg/injection, vehicle: Klucel (hydroxypropylcellulose) (HPC)",98 % of control
same,T/C,"dose: 175.0 mg/kg/injection, vehicle: Klucel (hydroxypropylcellulose) (HPC)",109 % of control
same,T/C,"dose: 350.0 mg/kg/injection, vehicle: Klucel (hydroxypropylcellulose) (HPC)",94 % of control
same,T/C,"dose: 700.0 mg/kg/injection, vehicle: Klucel (hydroxypropylcellulose) (HPC)",93 % of control
OC1(c2cccc(Cl)c2)C2=NCCCN2c2ccccc21 (stereo not drawn),T/C,"dose: 6.25 mg/kg/injection, vehicle: saline with Tween-80",102 % of control
same,T/C,"dose: 12.5 mg/kg/injection, vehicle: saline with Tween-80",103 % of control
same,T/C,[14],100 % of control
same,T/C,[9],99 % of control
CN(C)CCCOc1nc2c(c(=O)n(C)c(=O)n2C)n1C (tested in a mixture with another compound),T/C,[6],169 % of control and 182 % of control
same,T/C,[7],163 % of control and 197 % of control
same,T/C,[8],208 % of control and 267 % of control
CN(C)c1ccc2c(Nc3ccc(NS(C)(=O)=O)cc3)c3ccc(N(C)C)cc3nc2c1,T/C,"dose: 21.6 mg/kg/injection, vehicle: Klucel (hydroxypropylcellulose) (HPC)",116 % of control
same,T/C,[6],151 % of control
same,T/C,[7],159 % of control
same,T/C,"dose: 166.7 mg/kg/injection, vehicle: Klucel (hydroxypropylcellulose) (HPC)",172 % of control
CN1CCC2CC1c1ccn(C)c1C2=O (stereo not drawn),T/C,"dose: 3.75 mg/kg/injection, vehicle: saline",106 % of control
same,T/C,"dose: 7.5 mg/kg/injection, vehicle: saline",102 % of control
same,T/C,"dose: 15.0 mg/kg/injection, vehicle: saline",107 % of control
Nc1nc(N)c2c(ccc3c2ccn3Cc2cccc([N+](=O)[O-])c2)n1,T/C,"dose: 2.38 mg/kg/injection, vehicle: saline with Tween-80",98 % of control and 109 % of control
same,T/C,"dose: 4.69 mg/kg/injection, vehicle: saline with Tween-80",117 % of control
same,T/C,"dose: 4.75 mg/kg/injection, vehicle: saline with Tween-80",115 % of control
same,T/C,"dose: 9.38 mg/kg/injection, vehicle: saline with Tween-80",121 % of control
same,T/C,"dose: 9.5 mg/kg/injection, vehicle: saline with Tween-80",118 % of control
same,T/C,"dose: 38.0 mg/kg/injection, vehicle: saline with Tween-80",153 % of control and 155 % of control
CCOC(=O)CNCc1cc(=O)[nH]c2cc(Cl)ccc12,T/C,[14],99 % of control
same,T/C,[9],99 % of control
same,T/C,[10],101 % of control
same,T/C,[11],99 % of control
same,T/C,[12],94 % of control
COc1cc2c(cc1OC)[C@@H]1C(=O)c3ccc4c(c3O[C@@H]1CO2)C[C@H](C(C)C)O4,T/C,"dose: 12.5 mg/kg/injection, vehicle: Klucel (hydroxypropylcellulose) (HPC)",104 % of control
same,T/C,[5],104 % of control
same,T/C,[6],104 % of control
